Reference: PubChem BioAssay (NCI)
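Values below derive from 48-hour exposures of cells grown in 96-well plates, with endpoints linearly interpolated between the two concentrations bracketing the appropriate inhibition level. Here, GI50 denotes the concentration required for 50% inhibition of growth. At the TGI there is no net growth.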

What was measured:
Assay in all cases: NCI-60 cell line screen, 48 h
M14 melanoma = system: M14 melanoma
SR leukemia = system: SR leukemia
T-47D breast = system: T-47D breast
NCI-H23 lung = system: NCI-H23 lung
786-0 renal = system: 786-0 renal
LOX IMVI melanoma = system: LOX IMVI melanoma
OVCAR-4 ovarian = system: OVCAR-4 ovarian
CAKI-1 renal = system: CAKI-1 renal
SK-MEL-28 melanoma = system: SK-MEL-28 melanoma
RPMI-8226 leukemia = system: RPMI-8226 leukemia
SF-295 CNS = system: SF-295 CNS
NCI-H522 lung = system: NCI-H522 lung
MDA-MB-435 = system: MDA-MB-435
SNB-75 CNS = system: SNB-75 CNS
BT-549 breast = system: BT-549 breast
MALME-3M melanoma = system: MALME-3M melanoma
SK-MEL-2 melanoma = system: SK-MEL-2 melanoma
SF-268 CNS = system: SF-268 CNS
DU-145 prostate = system: DU-145 prostate
PC-3 prostate = system: PC-3 prostate
HCC-2998 colon = system: HCC-2998 colon
SK-OV-3 ovarian = system: SK-OV-3 ovarian
KM12 colon = system: KM12 colon
MCF7 breast = system: MCF7 breast
EKVX NSCLC = system: EKVX NSCLC
UACC-62 melanoma = system: UACC-62 melanoma
SW-620 colon = system: SW-620 colon
HT29 colon = system: HT29 colon
A549 NSCLC = system: A549 NSCLC
OVCAR-3 ovarian = system: OVCAR-3 ovarian

O=C(Nc1ccc(OCc2ccc(F)cc2)cc1)Nc1ccc(Cl)c(C(F)(F)F)c1
GI50 (M14 melanoma): 2.79 µM
TGI (M14 melanoma): 10.4 µM
GI50 (SR leukemia): 2.85 µM
TGI (SR leukemia): 12.6 µM
GI50 (T-47D breast): 2.46 µM
TGI (T-47D breast): 10.1 µM
GI50 (NCI-H23 lung): 2.38 µM
TGI (NCI-H23 lung): 7.17 µM
GI50 (786-0 renal): 3.12 µM
TGI (786-0 renal): 11.9 µM
GI50 (LOX IMVI melanoma): 2.79 µM
TGI (LOX IMVI melanoma): 9.64 µM
GI50 (OVCAR-4 ovarian): 2.89 µM
TGI (OVCAR-4 ovarian): 10.3 µM
GI50 (CAKI-1 renal): 2.56 µM
TGI (CAKI-1 renal): 9.1 µM
GI50 (SK-MEL-28 melanoma): 3.62 µM
TGI (SK-MEL-28 melanoma): 12.7 µM
GI50 (RPMI-8226 leukemia): 2.77 µM
TGI (RPMI-8226 leukemia): 21.8 µM
GI50 (SF-295 CNS): 1.89 µM
TGI (SF-295 CNS): 4.82 µM
GI50 (NCI-H522 lung): 3.03 µM
TGI (NCI-H522 lung): 12.3 µM
GI50 (MDA-MB-435): 2.15 µM
TGI (MDA-MB-435): 4.9 µM
GI50 (SNB-75 CNS): 1.33 µM
TGI (SNB-75 CNS): 6.2 µM
GI50 (BT-549 breast): 2.08 µM
TGI (BT-549 breast): 6.1 µM
GI50 (MALME-3M melanoma): 2.07 µM
TGI (MALME-3M melanoma): 5.78 µM
GI50 (SK-MEL-2 melanoma): 2.51 µM
TGI (SK-MEL-2 melanoma): 7.15 µM
GI50 (SF-268 CNS): 3.37 µM
TGI (SF-268 CNS): 12.1 µM
GI50 (DU-145 prostate): 3.96 µM
TGI (DU-145 prostate): 14.3 µM
GI50 (PC-3 prostate): 2.21 µM
TGI (PC-3 prostate): 10.7 µM
GI50 (HCC-2998 colon): 3.08 µM
TGI (HCC-2998 colon): 11.2 µM
GI50 (SK-OV-3 ovarian): 2.28 µM
TGI (SK-OV-3 ovarian): 7.28 µM
GI50 (KM12 colon): 2.86 µM
TGI (KM12 colon): 8.39 µM
GI50 (MCF7 breast): 2.25 µM
TGI (MCF7 breast): 8.25 µM
GI50 (EKVX NSCLC): 2.56 µM
TGI (EKVX NSCLC): 8.33 µM
GI50 (UACC-62 melanoma): 2.25 µM
TGI (UACC-62 melanoma): 7.75 µM
GI50 (SW-620 colon): 3.31 µM
TGI (SW-620 colon): 11.6 µM
GI50 (HT29 colon): 3.33 µM
TGI (HT29 colon): 14.5 µM
GI50 (A549 NSCLC): 2.83 µM
TGI (A549 NSCLC): 12.1 µM
GI50 (OVCAR-3 ovarian): 3.11 µM
